In US7495027B2, “3-aryl-4-hydroxyfuranone compounds and the human and animal health use thereof” (Wyeth, priority 2003, dated 2009):
≈ marks a conversion by molar mass, not a printed value.

Each compound was assayed against T1, S. aureus UDP-N-acetylglucosamine enolpyruvoyl transferase, MurA (Staphylococcus aureus, UniProt P84058) (assay: Inhibitory activity against MurA (S. aureus)). Details: (S) S. aureus enzyme.
T1 sequence (P84058 1-421): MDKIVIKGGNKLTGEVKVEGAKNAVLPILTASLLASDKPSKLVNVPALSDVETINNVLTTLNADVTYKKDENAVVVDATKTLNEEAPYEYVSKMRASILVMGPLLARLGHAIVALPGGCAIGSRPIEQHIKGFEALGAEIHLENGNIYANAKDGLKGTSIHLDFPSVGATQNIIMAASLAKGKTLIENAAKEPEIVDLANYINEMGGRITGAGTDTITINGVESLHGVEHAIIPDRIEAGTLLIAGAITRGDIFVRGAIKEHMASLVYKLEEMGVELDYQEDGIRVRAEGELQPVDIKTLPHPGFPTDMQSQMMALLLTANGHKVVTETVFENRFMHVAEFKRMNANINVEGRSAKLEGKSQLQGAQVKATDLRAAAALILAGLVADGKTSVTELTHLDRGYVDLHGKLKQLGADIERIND
Assay type: biochemical
Description: Evaluation of the Inhibitory Activity of Test Compounds Against Enzymes which Catalyze Bacterial Cell Wall Biosynthesis
S. aureus and E. coli UDP-N-acetylglucosamine enolpyruvoyl transferase, MurA
Preparation of Enzyme Solution:
The enzyme solution is prepared by admixing the following: 50 mM Tris/HCl pH 8.0, […] 1 M Tris, 5 mM DTT, […] 1 M DTT, 20% Glycerol 4 ml 50% Glycerol, add water to 10 ml.
Preparation of Stop Solution:
The stop solution is prepared by mixing the following: 4.2% ammonium molybdate in 4N HCl, 8.4 g/200 ml 4N HCl, 0.045% malachite green, 90 mg/200 ml water, then stir 1 part ammonium molybdate with 2 parts malachite green for 30 min.
A procedure similar to that described by C. T. Walsh in Biochemistry 33, 10646-10651, is used to evaluate the inhibitory activity of test compounds against MurA, the enzyme which catalyzes the first step of bacterial cell wall biosynthesis. Experiments are performed by adding a solution of test compound (in a mixture of dimethylsulfoxide and water) and an enzyme solution to a well. After a pre-incubation period of 10 mintues at 37° C., Tris/BME buffer and assay buffer are added. A start point optical density (OD0) reading is taken at 340 nm immediately following the addition of assay buffer. After incubation for 1 hr at 37° C., the stop solution is added and the color is allowed to develop for 30 minutes. An end point OD1 reading at […] is then taken. […]

Structure (SMILES) | IC50 [µM] | MurA IC50
O=C1O/C(=C\c2cccc3ccccc23)C(O)=C1c1ccc(C(F)(F)F)cc1 [Example 71] | > 65.4 | 
COc1cccc(C2=C(O)/C(=C/c3cccc4ccccc34)OC2=O)c1 [Example 72] | > 72.6 | 
COC(=O)c1ccc(C2=C(O)/C(=C/c3cccc4ccccc34)OC2=O)cc1 [Example 74] | > 67.1 | 
CCOC(=O)c1cccc(C2=C(O)C(=Cc3cccc4ccccc34)OC2=O)c1 [Example 75] |  | >25 (S) μg/mL
O=Cc1cccc(C2=C(O)/C(=C/c3cccc4ccccc34)OC2=O)c1 [Example 76] | 17.5 | 
O=C1O/C(=C\c2cccc3ccccc23)C(O)=C1c1cccc(C=NO)c1 [Example 77] |  | >25 (S) μg/mL
CN(C)c1ccc(/C=C2\OC(=O)C(c3ccc(Cl)cc3)=C2O)c2ccccc12 [Example 78] | > 63.8 | 
CN(C)c1ccc(/C=C2\OC(=O)C(c3cc(Cl)cc(Cl)c3)=C2O)c2ccccc12 [Example 79] | 32.8 | 
CN(C)c1ccc(C=C2OC(=O)C(c3cc(Cl)cc(Cl)c3)=C2O)c2ccccc12 [Example 80] |  | 15 (S) μg/mL
CN(C)c1ccc(/C=C2\OC(=O)C(c3ccc(C(F)(F)F)cc3)=C2O)c2ccccc12 [Example 81] | > 58.8 | 

Each compound was assayed against T2, S. aureus Uridine-diphosphate-N-acetylmuramoyl-L-alanine: D-glutamate liease, MurD (Staphylococcus aureus, UniProt Q2FZ92) (assay: biochemical). Details: (S) S. aureus enzyme.
T2 sequence (Q2FZ92 1-449): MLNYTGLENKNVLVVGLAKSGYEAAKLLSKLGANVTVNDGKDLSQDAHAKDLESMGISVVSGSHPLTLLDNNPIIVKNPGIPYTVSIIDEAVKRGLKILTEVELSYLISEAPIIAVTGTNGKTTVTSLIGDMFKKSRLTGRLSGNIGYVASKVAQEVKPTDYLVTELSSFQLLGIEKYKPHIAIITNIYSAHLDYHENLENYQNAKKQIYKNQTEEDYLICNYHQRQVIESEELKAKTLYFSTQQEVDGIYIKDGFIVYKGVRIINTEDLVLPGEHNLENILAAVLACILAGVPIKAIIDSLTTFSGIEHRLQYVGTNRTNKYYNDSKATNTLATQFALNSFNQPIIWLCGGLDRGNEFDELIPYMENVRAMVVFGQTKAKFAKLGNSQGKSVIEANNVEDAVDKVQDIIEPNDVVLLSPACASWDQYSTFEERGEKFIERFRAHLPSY
In short: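 MurD, which catalyses the fourth step of cell wall biosynthesis, was tested for inhibition by compounds. Compounds were made up as 10 mg/mL DMSO stocks and diluted to 100 μg/mL in 50 mM Tris/HCl, pH 8.5.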

Structure (SMILES) | IC50 [µM] | MurD IC50
O=C1O/C(=C\c2cccc3ccccc23)C(O)=C1c1ccc(C(F)(F)F)cc1 [Example 71] | 62.8 | 
COc1cccc(C2=C(O)/C(=C/c3cccc4ccccc34)OC2=O)c1 [Example 72] | > 72.6 | 
COC(=O)c1ccc(C2=C(O)/C(=C/c3cccc4ccccc34)OC2=O)cc1 [Example 74] | > 67.1 | 
CCOC(=O)c1cccc(C2=C(O)C(=Cc3cccc4ccccc34)OC2=O)c1 [Example 75] |  | >25 (E); >25 (S) μg/mL
O=Cc1cccc(C2=C(O)/C(=C/c3cccc4ccccc34)OC2=O)c1 [Example 76] | > 73 | 
O=C1O/C(=C\c2cccc3ccccc23)C(O)=C1c1cccc(C=NO)c1 [Example 77] |  | >25 (S) μg/mL
CN(C)c1ccc(/C=C2\OC(=O)C(c3ccc(Cl)cc3)=C2O)c2ccccc12 [Example 78] | > 63.8 | 
CN(C)c1ccc(/C=C2\OC(=O)C(c3cc(Cl)cc(Cl)c3)=C2O)c2ccccc12 [Example 79] | 32.8 | 
CN(C)c1ccc(C=C2OC(=O)C(c3cc(Cl)cc(Cl)c3)=C2O)c2ccccc12 [Example 80] |  | 13 (S) μg/mL
CN(C)c1ccc(/C=C2\OC(=O)C(c3ccc(C(F)(F)F)cc3)=C2O)c2ccccc12 [Example 81] | > 58.8 | 

Each compound was assayed on enterococci (assay: Minimum inhibitory concentration, microdilution broth method, enterococci). Details: E. faecalis GC 2242; Mueller-Hinton broth, 18-22 hours at 35° C.
Assay type: cell-based
In short: (§1)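 Following NCCLS standard M7-A5, MICs were determined by microdilution in Mueller-Hinton broth, with 5% horse blood added for streptococci.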

Structure (SMILES) | MIC E. faecalis GC 2242 [µg/mL]
CCOC(=O)c1cccc(C2=C(O)C(=Cc3cccc4ccccc34)OC2=O)c1 [Example 75] | >128
O=C1O/C(=C\c2cccc3ccccc23)C(O)=C1c1cccc(C=NO)c1 [Example 77] | >128
CN(C)c1ccc(C=C2OC(=O)C(c3cc(Cl)cc(Cl)c3)=C2O)c2ccccc12 [Example 80] | 4 (≈ 9.38 µM)

Same assay, conditions: E. faecalis GC 4555; Mueller-Hinton broth, 18-22 hours at 35° C.

Structure (SMILES) | MIC E. faecalis GC 4555 [µg/mL]
CCOC(=O)c1cccc(C2=C(O)C(=Cc3cccc4ccccc34)OC2=O)c1 [Example 75] | 64 (≈ 166 µM)
O=C1O/C(=C\c2cccc3ccccc23)C(O)=C1c1cccc(C=NO)c1 [Example 77] | >128
CN(C)c1ccc(C=C2OC(=O)C(c3cc(Cl)cc(Cl)c3)=C2O)c2ccccc12 [Example 80] | 8 (≈ 18.8 µM)

Same assay, conditions: Enterococcus faecalis, E. faecalis GC 2242; Mueller-Hinton broth, 18-22 hours at 35° C.; read-out: MIC E. faecalis GC 2242

Structure (SMILES) | MIC [µg/mL]
O=C1O/C(=C\c2cccc3ccccc23)C(O)=C1c1ccc(C(F)(F)F)cc1 [Example 71] | 4 (≈ 10.5 µM)
COc1cccc(C2=C(O)/C(=C/c3cccc4ccccc34)OC2=O)c1 [Example 72] | > 128
COC(=O)c1ccc(C2=C(O)/C(=C/c3cccc4ccccc34)OC2=O)cc1 [Example 74] | > 128
O=Cc1cccc(C2=C(O)/C(=C/c3cccc4ccccc34)OC2=O)c1 [Example 76] | > 128
CN(C)c1ccc(/C=C2\OC(=O)C(c3ccc(Cl)cc3)=C2O)c2ccccc12 [Example 78] | 64 (≈ 163 µM)
CN(C)c1ccc(/C=C2\OC(=O)C(c3cc(Cl)cc(Cl)c3)=C2O)c2ccccc12 [Example 79] | 4 (≈ 9.38 µM)
CN(C)c1ccc(/C=C2\OC(=O)C(c3ccc(C(F)(F)F)cc3)=C2O)c2ccccc12 [Example 81] | 16 (≈ 37.6 µM)

Same assay, conditions: Enterococcus faecalis, E. faecalis GC 4555; Mueller-Hinton broth, 18-22 hours at 35° C.; read-out: MIC E. faecalis GC 4555

Structure (SMILES) | MIC [µg/mL]
O=C1O/C(=C\c2cccc3ccccc23)C(O)=C1c1ccc(C(F)(F)F)cc1 [Example 71] | 8 (≈ 20.9 µM)
COc1cccc(C2=C(O)/C(=C/c3cccc4ccccc34)OC2=O)c1 [Example 72] | > 128
COC(=O)c1ccc(C2=C(O)/C(=C/c3cccc4ccccc34)OC2=O)cc1 [Example 74] | > 128
O=Cc1cccc(C2=C(O)/C(=C/c3cccc4ccccc34)OC2=O)c1 [Example 76] | > 128
CN(C)c1ccc(/C=C2\OC(=O)C(c3ccc(Cl)cc3)=C2O)c2ccccc12 [Example 78] | 64 (≈ 163 µM)
CN(C)c1ccc(/C=C2\OC(=O)C(c3cc(Cl)cc(Cl)c3)=C2O)c2ccccc12 [Example 79] | 8 (≈ 18.8 µM)
CN(C)c1ccc(/C=C2\OC(=O)C(c3ccc(C(F)(F)F)cc3)=C2O)c2ccccc12 [Example 81] | 32 (≈ 75.2 µM)

These compounds were tested on staphylococci (assay: Minimum inhibitory concentration, microdilution broth method, staphylococci). Details: S. aureus GC 1131; Mueller-Hinton broth, 18-22 hours at 35° C.
Assay type: cell-based
In short: as §1

Structure (SMILES) | MIC S. aureus GC 1131 [µg/mL]
CCOC(=O)c1cccc(C2=C(O)C(=Cc3cccc4ccccc34)OC2=O)c1 [Example 75] | 64 (≈ 166 µM)
O=C1O/C(=C\c2cccc3ccccc23)C(O)=C1c1cccc(C=NO)c1 [Example 77] | >128
CN(C)c1ccc(C=C2OC(=O)C(c3cc(Cl)cc(Cl)c3)=C2O)c2ccccc12 [Example 80] | 2 (≈ 4.69 µM)

Same assay, conditions: S. aureus GC 4543; Mueller-Hinton broth, 18-22 hours at 35° C.

Structure (SMILES) | MIC S. aureus GC 4543 [µg/mL]
CCOC(=O)c1cccc(C2=C(O)C(=Cc3cccc4ccccc34)OC2=O)c1 [Example 75] | >128
O=C1O/C(=C\c2cccc3ccccc23)C(O)=C1c1cccc(C=NO)c1 [Example 77] | 64 (≈ 179 µM)
CN(C)c1ccc(C=C2OC(=O)C(c3cc(Cl)cc(Cl)c3)=C2O)c2ccccc12 [Example 80] | 1 (≈ 2.35 µM)

Same assay, conditions: Staphylococcus aureus, S. aureus GC 1131; Mueller-Hinton broth, 18-22 hours at 35° C.; read-out: MIC S. aureus GC 1131

Structure (SMILES) | MIC [µg/mL]
O=C1O/C(=C\c2cccc3ccccc23)C(O)=C1c1ccc(C(F)(F)F)cc1 [Example 71] | 8 (≈ 20.9 µM)
COc1cccc(C2=C(O)/C(=C/c3cccc4ccccc34)OC2=O)c1 [Example 72] | > 128
COC(=O)c1ccc(C2=C(O)/C(=C/c3cccc4ccccc34)OC2=O)cc1 [Example 74] | 64 (≈ 172 µM)
O=Cc1cccc(C2=C(O)/C(=C/c3cccc4ccccc34)OC2=O)c1 [Example 76] | > 128
CN(C)c1ccc(/C=C2\OC(=O)C(c3ccc(Cl)cc3)=C2O)c2ccccc12 [Example 78] | 32 (≈ 81.7 µM)
CN(C)c1ccc(/C=C2\OC(=O)C(c3cc(Cl)cc(Cl)c3)=C2O)c2ccccc12 [Example 79] | 2 (≈ 4.69 µM)
CN(C)c1ccc(/C=C2\OC(=O)C(c3ccc(C(F)(F)F)cc3)=C2O)c2ccccc12 [Example 81] | 8 (≈ 18.8 µM)

Same assay, conditions: Staphylococcus aureus, S. aureus GC 4543; Mueller-Hinton broth, 18-22 hours at 35° C.; read-out: MIC S. aureus GC 4543

Structure (SMILES) | MIC [µg/mL]
O=C1O/C(=C\c2cccc3ccccc23)C(O)=C1c1ccc(C(F)(F)F)cc1 [Example 71] | 8 (≈ 20.9 µM)
COc1cccc(C2=C(O)/C(=C/c3cccc4ccccc34)OC2=O)c1 [Example 72] | > 128
COC(=O)c1ccc(C2=C(O)/C(=C/c3cccc4ccccc34)OC2=O)cc1 [Example 74] | > 128
O=Cc1cccc(C2=C(O)/C(=C/c3cccc4ccccc34)OC2=O)c1 [Example 76] | > 128
CN(C)c1ccc(/C=C2\OC(=O)C(c3ccc(Cl)cc3)=C2O)c2ccccc12 [Example 78] | 32 (≈ 81.7 µM)
CN(C)c1ccc(/C=C2\OC(=O)C(c3cc(Cl)cc(Cl)c3)=C2O)c2ccccc12 [Example 79] | 1 (≈ 2.35 µM)
CN(C)c1ccc(/C=C2\OC(=O)C(c3ccc(C(F)(F)F)cc3)=C2O)c2ccccc12 [Example 81] | 8 (≈ 18.8 µM)
